We go through four molecules from US8716282B2, “Imidazo[1,2-b]pyridazine derivatives and their use as PDE10 inhibitors” (Janssen Pharmaceutica NV, priority 2009, dated 2014).

Series [1] in a line: Intrinsic dissolution rate (IDR) of miniaturized pellets. The series is classed as physicochemical. As to conditions: 37.0±0.5° C.; for Average IDR: 0.01M HCl at 100 rpm, miniaturized pellets; for intrinsic dissolution rate (IDR): pellets of 0.0754 cm^2. Here is the method:
The intrinsic dissolution rate was measured using a DISS Profiler™ system consisting in both a mini-bath and UV fiber optic (5 mm pathlength) probes connected to a photodiode array (PDA) spectrophotometer (from pION Inc). Each pellet prepared were positioned in individual vessels. The intrinsic dissolution test was performed using 0.01 M HCl (20 mL) maintained at 37.0±0.5° C. with a stirring rate of 100 rpm. The concentration measurements were performed using UV detection at 326 nm. The intrinsic dissolution rate (IDR) was calculated by dividing the dissolution rate by the exposure area of pellet (0.0754 cm^2).

Series [2] is described as follows: Adsorption-desorption (dynamic vapor sorption). The series is classed as physicochemical. To be noted: for weight loss during the initial drying step: 60 min. under dry nitrogen at 25° C.; for hygroscopic behavior / physical form during the DVS test: DVS, 25° C., RH 0-95%.
Series [3] is described as follows: Solubility as a function of pH at 20° C. The series is classed as physicochemical. As for the experimental part:
After removing the undissolved compound (0.45 μm Millex LCR filter), the concentration in the solution was determined using UV spectrometry. The pH of the solution was measured.

Series [4] concerns novel object recognition in female hooded-Lister rats. As to the kind of experiment: Object recognition test (NOR), sub-chronic PCP. The series is classed as in vivo, rat. As to conditions: for effects of acute treatment in the NOR task: compound 1 0.3-1.0 mg/kg, PQ10 1.0 mg/kg, oral, 30 min prior to testing. As for the experimental part: 60 female hooded-Lister rats (Charles River, UK) were used as subjects for these studies and weighed 248 g±20 g. Rats were allowed at least a 7-day acclimatization period to the animal unit prior to commencement of experimentation. Rats were housed in groups of 5 under standard laboratory conditions under a 12 h light:dark cycle, lights on at 0700 h. All testing was carried out in the light phase. Food and water were freely provided. All experiments were conducted in accordance with the Animals Scientific Procedures Act, U.K. 1986 and were approved by the University of Bradford ethical review panel.
40 mg of test compound was dissolved in 5 ml of 40% hydroxypropyl β-cyclodextrin (HPBC) solution. The solution was sonicated until completely dissolved. 2 ml of sterile water was added and the pH measured and adjusted with NaOH solution (0.1N) to obtain pH ˜4. Finally, sterile water was added to a final volume of 10 ml. This stock solution was then diluted in 20% HPBC to obtain the final concentrations.
100 mg of PQ10 was dissolved in a 40% HPBC solution and 8 mg of tartaric acid. The solution was sonicated until completely dissolved. 5 ml of sterile water was added and the pH measured and adjusted with NaOH solution (0.1N) to obtain pH ˜4. Finally sterile water was added to a final volume of 10 ml.
Test compound was administered at doses of 0.3 and 1.0 mg/kg via the oral route 30 min prior to testing.
PQ10 was administered at a dose of 1.0 mg/kg via the oral route 30 min prior to testing.
Certain pre-clinical tests allow the observation of relatively subtle cognitive deficits in the rat that resemble cognitive symptoms in subjects with schizophrenia. The cognitive deficits observed are seen in behaviours such as episodic memory, which can be measured by recognition tasks such as the novel object recognition (NOR) paradigm. A recognition memory task allows the comparison between presented stimuli and previously stored information. […] Object recognition in rats can be measured as the difference in time spent exploring the familiar and the new object. […]

Converted amounts (≈) assume the structure as drawn. Where two headings read alike, the source gives them in different places.

For the molecule `COCCc1ccc(-c2c(C)nc3c(N4CCOCC4)ccnn23)cn1.O` [Compound 1c, 3-[6-(2-methoxyethyl)-3-pyridinyl]-2-methyl-8-(4-morpholinyl)-imidazo[1,2-b]pyridazine monohydrate], the “Average IDR” value in series [1] was 1.1011 mg · min^−1 · cm^−2. Also, the “intrinsic dissolution rate (IDR)” value in series [1] (0.01 M HCl, 100 rpm) is 1.10 mg·min^−1·cm^−2.
With `COCCc1ccc(-c2c(C)nc3c(N4CCOCC4)ccnn23)cn1.O=P(O)(O)O` [Compound 1d, 3-[6-(2-methoxyethyl)-3-pyridinyl]-2-methyl-8-(4-morpholinyl)-imidazo[1,2-b]pyridazine phosphate], in series [1], the “Average IDR” value is on record as 2.5172 mg · min^−1 · cm^−2. In addition, the “time until pellets were totally dissolved” value in series [1] (0.01 M HCl, 100 rpm) is on record as at most 10 min. Besides, the “intrinsic dissolution rate (IDR)” value in series [1] (0.01 M HCl, 100 rpm) came to 2.52 mg·min^−1·cm^−2. Also, the “weight loss during the initial drying step” value in series [2] is 0.3%. Moreover, in series [2], the hygroscopic behavior entry is “no hygroscopic behavior”. In series [2], the “physical form during the DVS test” value is “remains crystalline”. Besides, the solubility in series [3] (aqueous buffer, thermodynamic from solid, borate-KCl—NaOH buffer pH 9, pH of solution 7.4, phosphate salt, read-out: Solubility (mg/mL) of compound 1d) is 0.1 mg/mL; in series [3] (aqueous buffer, thermodynamic from solid, citrate-NaOH buffer pH 5, pH of solution 4.9, phosphate salt, read-out: Solubility (mg/mL) of compound 1d), 0.14 mg/mL; in series [3] (aqueous buffer, thermodynamic from solid, citrate-NaOH—HCl buffer pH 2, pH of solution 2.5, phosphate salt, read-out: Solubility (mg/mL) of compound 1d), 20.2 mg/mL; in series [3] (aqueous buffer, thermodynamic from solid, phosphate buffer pH 7, pH of solution 6.8, phosphate salt, read-out: Solubility (mg/mL) of compound 1d) it was 0.09 mg/mL; in series [3] (aqueous buffer, thermodynamic from solid, phosphate-NaOH buffer pH 12, pH of solution 11.2, phosphate salt, read-out: Solubility (mg/mL) of compound 1d), 0.1 mg/mL; in series [3] (pH 2.1, simulated gastric fluid, thermodynamic from solid, 0.1N HCl, pH of solution 2.1, phosphate salt, read-out: Solubility (mg/mL) of compound 1d), 46 mg/mL. Moreover, the solubility is 11.9 mg/mL in series [3] (pH 2.5, simulated gastric fluid, thermodynamic from solid, 0.01N HCl, pH of solution 2.5, phosphate salt, read-out: Solubility (mg/mL) of compound 1d); 9.7 mg/mL in series [3] (pH 2.6, thermodynamic from solid, water, pH of solution 2.6, phosphate salt, read-out: Solubility (mg/mL) of compound 1d); 0.1 mg/mL in series [3] (pH 12.5, aqueous buffer, thermodynamic from solid, 0.1N NaOH, pH of solution 12.5, phosphate salt, read-out: Solubility (mg/mL) of compound 1d). Moreover, the “solubility compared to the anhydrous free base form (compound 1)” value in series [3] (in vitro results) is reported as “much higher solubility”.
For the molecule `COc1cc2ncnc(N3CC[C@@H](Oc4cnc5ccccc5n4)C3)c2cc1OC` [PQ10], the “T2(A) exploration time of familiar object, retention trial” value in series [4] (PCP + 1 mg/kg p.o., mean) turned out to be 7.9 s. For the same molecule, the “effects of acute treatment in the NOR task” value in series [4] is listed as “selective for the retention phase of the NOR task”.
For the molecule `COCCc1ccc(-c2c(C)nc3c(N4CCOCC4)ccnn23)cn1` [Compound 1, 3-[6-(2-methoxyethyl)-3-pyridinyl]-2-methyl-8-(4-morpholinyl)-imidazo[1,2-b]pyridazine], the “effects of acute treatment in the NOR task” value in series [4] is “selective for the retention phase of the NOR task”. Besides, in series [1], the “Average IDR” value was 0.8170 mg · min^−1 · cm^−2. In series [1] (0.01 M HCl, 100 rpm), the “intrinsic dissolution rate (IDR)” value amounted to 0.82 mg·min^−1·cm^−2. For the same molecule, the “weight loss during the initial drying step” value in series [2] amounted to 0.06%. Moreover, in series [2], the hygroscopic behavior entry is “no hygroscopic behavior”. The “physical form during the DVS test” value in series [2] is reported as “remained the same physical form”. The solubility is 0.009 mg/mL (≈ 25.5 µM) in series [3] (aqueous buffer, thermodynamic from solid, borate-KCl—NaOH buffer pH 9, pH of solution 8.9, anhydrous free base); 0.012 mg/mL (≈ 34 µM) in series [3] (aqueous buffer, thermodynamic from solid, citrate-NaOH buffer pH 5, pH of solution 5.0, anhydrous free base); 0.61 mg/mL (≈ 1730 µM) in series [3] (aqueous buffer, thermodynamic from solid, citrate-NaOH—HCl buffer pH 2, pH of solution 2.9, anhydrous free base); 0.008 mg/mL (≈ 22.6 µM) in series [3] (aqueous buffer, thermodynamic from solid, phosphate buffer pH 7, pH of solution 7.0, anhydrous free base); 0.008 mg/mL (≈ 22.6 µM) in series [3] (aqueous buffer, thermodynamic from solid, phosphate-NaOH buffer pH 12, pH of solution 11.9, anhydrous free base); 2.5 mg/mL (≈ 7070 µM) in series [3] (pH 2.5, simulated gastric fluid, thermodynamic from solid, 0.1N HCl, pH of solution 2.5, anhydrous free base). Besides, the solubility in series [3] (pH 3, simulated gastric fluid, thermodynamic from solid, 0.01N HCl, pH of solution 3.0, anhydrous free base) is 0.32 mg/mL (≈ 905 µM); in series [3] (pH 8.7, thermodynamic from solid, water, pH of solution 8.7, anhydrous free base) it was 0.009 mg/mL (≈ 25.5 µM); in series [3] (pH 12.9, aqueous buffer, thermodynamic from solid, 0.1N NaOH, pH of solution 12.9, anhydrous free base) it was 0.008 mg/mL (≈ 22.6 µM).
